Calls of active or inactive are those of the source. The rule behind the calls is not given here.
Key:
[1] = Ratio of drug level in brain to blood in rat at 3 mg/kg, po; assay type: ADME, organism-based; parameters: dose 3 mg/kg, route oral
[2] = target: T1, Muscarinic acetylcholine receptor M1 (Homo sapiens, UniProt P11229); assay: Agonist activity at human muscarinic M1 receptor expressed in CHO cells assessed as effect on acetylcholine-induced intracellular calcium level by FLIPR assay; assay type: functional, cell-based
T1 sequence (P11229 whole entry): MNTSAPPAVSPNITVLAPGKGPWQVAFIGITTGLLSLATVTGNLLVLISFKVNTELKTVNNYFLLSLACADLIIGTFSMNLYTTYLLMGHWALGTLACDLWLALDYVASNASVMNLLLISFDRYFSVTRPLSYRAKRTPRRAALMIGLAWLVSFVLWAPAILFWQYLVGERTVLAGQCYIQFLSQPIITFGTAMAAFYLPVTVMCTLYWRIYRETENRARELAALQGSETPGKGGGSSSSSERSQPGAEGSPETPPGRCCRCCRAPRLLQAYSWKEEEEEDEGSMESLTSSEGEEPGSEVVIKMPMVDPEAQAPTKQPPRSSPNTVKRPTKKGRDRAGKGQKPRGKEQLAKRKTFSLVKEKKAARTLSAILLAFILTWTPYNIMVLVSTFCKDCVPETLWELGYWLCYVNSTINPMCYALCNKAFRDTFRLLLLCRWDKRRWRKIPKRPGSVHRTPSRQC

[3] = target: T2, Muscarinic acetylcholine receptor M4 (Homo sapiens, UniProt P08173); assay: Inhibition of human muscarinic M4 receptor expressed in CHO cells; assay type: cell-based
T2 sequence (P08173 whole entry): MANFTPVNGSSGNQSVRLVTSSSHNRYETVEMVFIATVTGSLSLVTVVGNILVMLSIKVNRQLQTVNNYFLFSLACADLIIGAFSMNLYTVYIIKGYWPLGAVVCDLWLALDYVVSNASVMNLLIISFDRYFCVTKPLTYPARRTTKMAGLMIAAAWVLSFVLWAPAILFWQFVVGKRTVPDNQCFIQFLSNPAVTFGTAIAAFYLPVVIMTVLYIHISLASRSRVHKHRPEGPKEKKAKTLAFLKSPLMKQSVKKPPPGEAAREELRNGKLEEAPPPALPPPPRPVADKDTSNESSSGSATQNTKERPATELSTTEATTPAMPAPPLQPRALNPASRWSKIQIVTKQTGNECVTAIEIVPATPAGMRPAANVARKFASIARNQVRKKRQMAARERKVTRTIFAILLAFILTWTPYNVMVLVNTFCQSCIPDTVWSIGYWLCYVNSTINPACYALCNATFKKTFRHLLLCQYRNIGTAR

[4] = Half life in rat at 3 mg/kg, po; assay type: ADME, organism-based; parameters: dose 3 mg/kg, route oral; settings: in vivo
[5] = target: T3, Muscarinic acetylcholine receptor M5 (Homo sapiens, UniProt P08912); assay: Inhibition of human muscarinic M5 receptor expressed in CHO cells; assay type: cell-based
T3 sequence (P08912 whole entry): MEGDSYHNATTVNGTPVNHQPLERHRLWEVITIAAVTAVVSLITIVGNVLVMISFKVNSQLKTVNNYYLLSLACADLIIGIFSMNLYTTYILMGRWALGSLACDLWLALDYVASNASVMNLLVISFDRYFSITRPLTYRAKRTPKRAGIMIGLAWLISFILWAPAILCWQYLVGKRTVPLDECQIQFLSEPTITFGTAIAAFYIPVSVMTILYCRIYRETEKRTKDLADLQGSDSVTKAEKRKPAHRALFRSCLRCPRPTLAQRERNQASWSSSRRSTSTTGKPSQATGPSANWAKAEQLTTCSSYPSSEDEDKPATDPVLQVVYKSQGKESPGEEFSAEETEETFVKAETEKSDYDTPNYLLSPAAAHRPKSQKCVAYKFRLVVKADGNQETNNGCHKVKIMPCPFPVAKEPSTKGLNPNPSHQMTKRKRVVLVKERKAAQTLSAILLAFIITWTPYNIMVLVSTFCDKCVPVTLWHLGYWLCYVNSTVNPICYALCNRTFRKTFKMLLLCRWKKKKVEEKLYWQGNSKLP

[6] = target: T4, Muscarinic acetylcholine receptor M1 (Homo sapiens) (UniProt P11229); assay: Intrinsic activity at human muscarinic M1 receptor expressed in CHO cells assessed as effect on acetylcholine-induced intracellular calcium level by FLIPR assay relative to acetylcholine; assay type: functional, cell-based
T4 sequence (whole entry): T1 sequence (P11229 whole entry)

[7] = target: T5, Muscarinic acetylcholine receptor M2 (Homo sapiens, UniProt P08172); assay: Inhibition of human muscarinic M2 receptor expressed in CHO cells; assay type: cell-based
T5 sequence (P08172 whole entry): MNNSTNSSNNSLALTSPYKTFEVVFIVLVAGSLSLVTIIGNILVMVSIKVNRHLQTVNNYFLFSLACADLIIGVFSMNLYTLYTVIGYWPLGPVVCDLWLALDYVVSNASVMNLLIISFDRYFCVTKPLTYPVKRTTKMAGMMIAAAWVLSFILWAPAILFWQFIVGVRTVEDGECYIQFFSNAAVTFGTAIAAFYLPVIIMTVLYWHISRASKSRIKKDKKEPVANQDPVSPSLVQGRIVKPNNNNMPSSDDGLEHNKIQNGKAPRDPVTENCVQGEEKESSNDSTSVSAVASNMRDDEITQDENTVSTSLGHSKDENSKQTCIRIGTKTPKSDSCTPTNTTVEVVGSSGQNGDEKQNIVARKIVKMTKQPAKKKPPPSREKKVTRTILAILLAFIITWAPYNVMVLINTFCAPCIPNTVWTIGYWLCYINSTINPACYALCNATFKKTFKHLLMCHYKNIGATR

[8] = test system: Rattus norvegicus; assay: AUC in rat at 3 mg/kg, po; assay type: ADME, organism-based, Plasma; parameters: dose 3 mg/kg, route oral; settings: in vivo
[9] = target: T6, Muscarinic acetylcholine receptor M3 (Homo sapiens, UniProt P20309); assay: Inhibition of human muscarinic M3 receptor expressed in CHO cells; assay type: cell-based
Target sequence in this assay (P20309 whole entry): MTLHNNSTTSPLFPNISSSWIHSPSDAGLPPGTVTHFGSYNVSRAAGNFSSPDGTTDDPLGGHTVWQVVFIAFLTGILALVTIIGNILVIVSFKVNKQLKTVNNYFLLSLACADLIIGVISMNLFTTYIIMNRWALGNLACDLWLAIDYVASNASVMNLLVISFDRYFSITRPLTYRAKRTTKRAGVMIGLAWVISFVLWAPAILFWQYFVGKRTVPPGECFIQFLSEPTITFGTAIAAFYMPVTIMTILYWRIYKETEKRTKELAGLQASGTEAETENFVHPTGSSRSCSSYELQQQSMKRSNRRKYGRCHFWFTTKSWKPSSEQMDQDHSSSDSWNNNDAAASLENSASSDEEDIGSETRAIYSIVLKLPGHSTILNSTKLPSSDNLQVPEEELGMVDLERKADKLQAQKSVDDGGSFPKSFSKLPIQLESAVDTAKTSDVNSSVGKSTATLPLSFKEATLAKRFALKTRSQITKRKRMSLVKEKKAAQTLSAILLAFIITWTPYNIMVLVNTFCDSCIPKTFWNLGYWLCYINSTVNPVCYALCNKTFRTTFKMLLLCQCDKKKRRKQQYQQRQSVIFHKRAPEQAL

[10] = Ratio of drug level in brain to blood in rat at 10 mg/kg, sc; assay type: ADME, organism-based; parameters: dose 10 mg/kg, route subcutaneous
[11] = target: T7, Muscarinic acetylcholine receptor M5 (Homo sapiens) (UniProt P08912); assay: Agonist activity at human muscarinic M5 receptor expressed in CHO cells assessed as effect on acetylcholine-induced intracellular calcium level by FLIPR assay; assay type: functional, cell-based
T7 sequence (whole entry): T3 sequence (P08912 whole entry)

[12] = Half life in rat at 10 mg/kg, sc; assay type: ADME, organism-based; parameters: dose 10 mg/kg, route subcutaneous; settings: in vivo
[13] = target: T8, Muscarinic acetylcholine receptor M4 (Homo sapiens) (UniProt P08173); assay: Agonist activity at human muscarinic M4 receptor expressed in CHO cells assessed as effect on acetylcholine-induced intracellular calcium level by FLIPR assay; assay type: functional, cell-based
T8 sequence (whole entry): T2 sequence (P08173 whole entry)

[14] = target: T6, Muscarinic acetylcholine receptor M3; assay: Agonist activity at human muscarinic M3 receptor expressed in CHO cells assessed as effect on acetylcholine-induced intracellular calcium level by FLIPR assay; assay type: functional, cell-based
Target sequence in this assay (P20309 whole entry, looked up): as the sequence (P20309 whole entry) above

[15] = target: T9, Muscarinic acetylcholine receptor M2 (Homo sapiens) (UniProt P08172); assay: Agonist activity at human muscarinic M2 receptor expressed in CHO cells assessed as effect on acetylcholine-induced intracellular calcium level by FLIPR assay; assay type: functional, cell-based
T9 sequence (whole entry): T5 sequence (P08172 whole entry)

[16] = test system: Rattus norvegicus; assay: AUC in rat at 10 mg/kg, sc; assay type: ADME, organism-based, Plasma; parameters: dose 10 mg/kg, route subcutaneous; settings: in vivo

| Kp [1] | EC50 [2] [nM] | IC50 [3] [nM] | half-life [4] [h] | IC50 [5] [nM] | Intrinsic activity [6] [%] | IC50 [7] [nM] | AUC [8] [ng·h/g] | IC50 [9] [nM] | Kp [10] | Activity [11] | half-life [12] [h] | Activity [13] | Activity [14] | Activity [15] | AUC [16] [ng·h/g] | SMILES |
| --- | --- | --- | --- | --- | --- | --- | --- | --- | --- | --- | --- | --- | --- | --- | --- | --- |
| 0.3 | 10 | 3160 | 3 | 6310 | 85 | 2510 | 2221 | 5010 |  |  |  |  |  |  |  | C[C@H]1CNCC[C@]1(F)CNC(=O)c1c(F)cccc1-c1cccc(Cl)c1 |
|  | 0.794 | 158 |  | 501 | 116 | 200 |  | 39.8 | 0.9 | inactive | 2.3 | inactive | inactive | inactive | 1655 | C[C@H]1CNCC[C@@H]1CNC(=O)c1c(F)cccc1-c1cccc(Cl)c1 (relative stereo) |

Reference: ChEMBL document CHEMBL1158595, “2' biaryl amides as novel and subtype selective M1 agonists. Part II: Further optimization and profiling” (Bioorg Med Chem Lett, 2010)
